According to patent publication US12133846B2, “Electrophilic androgen receptor (AR) antagonists for AR downregulation and ferroptosis induction in cancer cells” (priority 2019, dated 2024):

Assays:
VCaP cells = test: BSO pretreatment plus drug, MTT viability, VCaP cells
Procedure: Cell viability was then assessed using an MTT assay.
PCa cells (6×10^3 cells/well) were seeded into 96-well plates overnight and then treated with indicated compounds at indicated concentrations and time durations. The MTT (3-(4, 5-Dimethylthiazol-2-yl)-2,5-diphenyltetrazolium bromide) assay was performed according to the standard protocol. Briefly, MTT (0.5 mg/mL) was incubated with cells at 37° C. for 3 hours. Supernatant was removed, followed by the addition of dimethyl DMSO (100 μl). After incubation for 30 minutes at 37° C., absorbance was read at 570 nm on a microplate reader.

PARP cleavage = PARP cleavage under 2-63 plus BSO in PCa cells; type: cell-based; details: 2-63 plus BSO combination, data not shown
Description: 2-63 and BSO combination induces ferroptosis in PCa cells. […] Because both ITC and BSO change redox balance, and because the significant upregulation of HO-1 by 2-63 (FIG. 21) may increase free ferrous iron (Fe2+) inside cells, ferroptosis, a recently defined non-apoptotic cell death mechanism that occurs due to ROS and iron-caused oxidative lipid damage (Stockwell, et al., Cell 2017, 171, 273-285) was explored.

[1] = test system: AR transcriptional activity in MDA-kb2 cells; test: cells; type: cell-based; details: DHT 1 nM
Procedure: MDA-kb2-cell-based ARE luciferase assays were performed to assess the influence of 2-63 and related compounds on AR transcriptional activity. […] Upon androgen stimulation and addition of a luciferase substrate, […], and the intensity is proportional to the extent of AR activation. An agent that either antagonistically competes with DHT for AR binding or reduces the expression of AR diminishes luciferase activity/fluorescence signal in this experimental system. […] 10b (an alcohol) and 11 b (an azide) are synthetic precursors of the ITC hybrid 12b.
Luciferase Assay. […] For all procedures, cells were incubated at CO2 free condition. Steady-Glo® (Promega Corp., Madison, WI) reagent was added to culture media with shaking for 10 min. Samples (100 μL) were transferred to an opaque 96-well white plate, and luminescence was measured using a luminometer.

For `CC(=O)N[C@H](CSC(=S)NCCCCCCc1ccc(N2C(=S)N(c3ccc(C#N)c(C(F)(F)F)c3)C(=O)C2(C)C)cn1)C(=O)O` [2-63, N-acetyl-S-((6-(5-(3-(4-cyano-3-(trifluoromethyl)phenyl)-5,5-dimethyl-4-oxo-2-thioxoimidazolidin-1-yl)pyridine-2-yl)hexyl)carbamothioyl)-D-cysteine], the “combinatorial effect with BSO (interaction index), VCaP” value (VCaP cells; BSO 2.5-10 μM 16 h pretreatment, then 2-63 1-10 μM 24 h, synergism = index <0.8) was “synergistically reduced viability”, the “viability suppression, VCaP cells” value (VCaP cells; BSO plus 2-63 reduced to 2.5 μM, 24 h) was 60% and the PARP cleavage (PARP cleavage) was “did not cause detectable PARP cleavage”. The “AR inhibition at 1 μM relative to Enz, 10b and 11b” value ([1]; 1 μM) was “less effective”, the “suppression of DHT-stimulated luciferase activity” value ([1]; 1-5 μM) was “decreased luciferase activity in a dose-dependent manner” and the “AR inhibition at higher concentrations relative to comparators” value ([1]; 2.5 and 5 μM) was “similarly with these non-ITC-containing compounds”.
